From patent publication EP0252983B1, “SALTS OF N-(VINYLOXIETHYL)DITHIOCARBAMIC ACID, METHOD OF OBTAINING THEREOF AND […] ON THEM” (priority 1985, dated 1987)
Read-outs that look alike come from different tables or passages of the source.

What was measured:
Penicillium charlesii = test: Mycelial growth inhibition on agar (contact activity); assay type: cell-based
Procedure: (§1) Die Prüfungen werden nach dem Verfahren zur Ermittlung der Kontaktaktivität durchgeführt. Man verwendet das in Wasser gelöste Kalium-N-(vinyloxyäthyl)dithiocarbamat, führt es in ein Nährmedium ein und vergießt auf Petri-Schalen. Nach 24 Stunden wird mit Pilzmyzelium nach einem Stichverfahren geimpft. Dann temperiert man die Schalen innerhalb von 5 Tagen bei einer zwischen 24 und 26 °C liegenden Temperatur und mißt den Durchmesser von Pilzkolonien, ermittelt den Prozentsatz der Hemmung des Myzelwachstums (S) ausgehend von Angaben am 5. Tag nach der Abbott-Formel [drawing 13] worin dc für den Durchmesser der Pilzkolonien, de für den Durchmesser von Pilzkolonien in der Schale stehen, wo ein die zu prüfenden Stoffe enthaltendes Medium vorhanden ist. Dieses Verfahren zur Ermittlung der mikrobiologischen Aktivität ist in anderen Beispielen verwendet.
(§2) Die Pilzkulturen werden auf Würzeagar gezüchtet. Ergebnisse, erhalten bei der Prüfung der fungiziden Aktivität gegen reine Kulturen von Mikroorganismen, welche Bioschädigungen hervorrufen, sind in der Tabelle 1 dargestellt.

Acremonium cowum [1] = test: as above; assay type: cell-based; settings: Würzeagar
Procedure: as §1, §2

Cladosporium resinae [2] = test: as above; assay type: cell-based; settings: Würzeagar
Procedure: as §1, §2

Walrotiela subiculesa = test: as above; assay type: cell-based
Procedure: as §1, §2

Penicillium chrysogenum = test: as above; assay type: cell-based
Procedure: as §1, §2

Acremonium charticola [3] = test: as above; assay type: cell-based; settings: Würzeagar
Procedure: as §1, §2

Geotrichum candidum Link = test: as above; assay type: cell-based
Procedure: as §1, §2

Oidium Sp. = test: as above; assay type: cell-based; settings: Würzeagar
Procedure: as §1, §2

[4] = test system: Cladosporium cladosporioides; test: as above; assay type: cell-based; settings: Würzeagar
Procedure: as §1, §2

[5] = Solubility in water (descriptive); assay type: physicochemical
Fusarium sambucinum = test: Mycelial growth inhibition on agar (contact activity); assay type: cell-based; settings: concentration not given
Procedure: as §1
(§3) Tabelle 2 zeigt die Angaben für die fungizide Aktivität von Kalium-N-(vinyloxyäthyl)dithiocarbamat und bekannten wirksamen Fungiziden Poly arbazin und TMTD. Der zu prüfende Stoff wurde im Laufe der Versuche in Wasser aufgelöst, und die Kulturen wurden auf einem Kartoffel-Glukose-Nährmedium gezüchtet.

Fusarium moniliforme = test: as above; assay type: cell-based; settings: concentration not given
Procedure: as §1, §3

Aspergillus niger = test: as above; assay type: cell-based; settings: concentration not given
Xantomonas malvacearum = test: Bacterial growth inhibition; assay type: cell-based; settings: concentration not given
[6] = Acute toxicity (LD50) in mice; assay type: in vivo, weißen Mäusen; settings: intraabdominale Applikation an weißen Mäusen
Sphaeropsis malorum = test: Mycelial growth inhibition on agar (contact activity); assay type: cell-based; settings: concentration not given
Procedure: as §1
(§4) Als Nährmedium dient Würzeagar.

Psoroptes cuniculi = test: Acaricidal activity on isolated mites; assay type: in vivo
Procedure: Die akarizide Aktivität der Stoffe wird an isolierten Milben Psoroptes cuniculi als Erreger der Psoroptesräude bei Kaninchen geprüft. Von frischen Verkrustungen von Kaninchen mit Psoroptesräude, werden zu diesem Zweck 50 Milbenexemplare (Larven, Nymphen, Imago) gewählt und in Petri-Schalen auf ein Filterpapierblatt übertragen. Dann bringt man auf Milben und die ganze Blattoberfläche 1,5 ml zu prüfende wäßrige Stofflösung in destilliertem Wasser auf. Die Schale wird mit Deckel verschlossen und in einen Thermostat bei 30 °C und Feuchtegehalt von 90 % angeordnet. Der Wirkstoff wird als wäßrige Lösung mit einer zwischen 0,0039 und 4 % liegenden Konzentration genommen. Als Vergleichsmuster dient gleichzeitig eine wäßrige Lösung von Chlorophos. Milben werden im Kontrollversuch (Kontrolle auf Lebensfähigkeit)mit 1,5 ml physiologischer Lösung behandelt und in einen anderen Thermostat unter gleichen Temperatur- und Feuchtigkeitsbedingungen aufgestellt.
Nach 1, 2, 4, 6 Stunden und alle 24 Stunden betrachtet man die Milben im Mikroskop und zählt die toten Milben. Aufgrund der Milbenvernichtung durch einen 24-stündigen Kontakt mit dem Wirkstoff ermittelt man die LK-50 Werte. Die Versuche werden 5mal wiederholt. Arithmetische Mittelwerte gibt Tabelle 14 an.

[7] = Storage stability (descriptive); assay type: physicochemical
Rhizoctonia solani = test: Mycelial growth inhibition on agar (contact activity); assay type: cell-based; settings: concentration not given
Procedure: as §1
Die fungizide Aktivität von Zink-bis-(N-vinyloxyäthyldithiocarbamat) gegen reine Kulturen von Pilzen Fusarium moniliforme, Fusarium sambucinum, Aspergillus niger, Rhizoctonia solani, Cladosporium resinae, Cladosporium cladosporioides, Acremonium cowum, Acremonium charticola, Penicillium chrysogenum, Penicillium charlesii Smith, Penicillium funiculosum, Geotrichum candidum Link, Walrotiela subiculesa, Oidium sp., Paecilomyces varioti, Stereum hirsutum wird gemäß Beispiel 8 untersucht.
as §4

Escherichia = test: Bactericidal activity on agar (concentration of complete growth inhibition); assay type: cell-based; settings: % bezogen auf den Wirkstoff; am 5. Tag
Procedure: (§5) Geprüft wird die bakterizide Aktivität von Kalium-, Natrium-, Zink- und Kupfersalzen der N-(Vinyloxyäthyl)dithiocarbamidsäure gegen Bakterien der Gattungen Bacillus, Micrococcus, Pseudomonas, Escherichia und Xantomonas.
(§6) Man stellt wäßrige Stofflösungen verschiedener Konzentration her, die so berechnet werden, daß die Stoffkonzentration in der Petri-Schale bei der Gabe von 1 ml Lösung in das geschmolzene Nährmedium (45 bis 50 °C) zwischen 0,003 und 25 % (bezogen auf den Wirkstoff) schwankt. Nach 18 bis 24 Stunden bringt man auf die Oberfläche des Nährmediums 0,1 ml wäßrige Suspension eintägiger reiner Kulturen von Bakterien auf und verteilt sie gleichmäßig. In Kontrollschalen verteilt sich 0,1 ml Wasser über die Oberfläche des Nährmediums. Die Inkubation erfolgt bei 37 °C innerhalb von 5 Tagen. Die Wirksamkeit der Stoffe wird nach dem Auftreten des Bakterienwachstums auf der Oberfläche des Nährmediums eingeschätzt. Die Prüfergebnisse sind in der Tabelle 13 dargestellt.

Bacillus = test: as above; assay type: cell-based; settings: % bezogen auf den Wirkstoff; am 5. Tag
Procedure: as §5, §6

Xantomonas = test: as above; assay type: cell-based; settings: % bezogen auf den Wirkstoff; am 5. Tag
Procedure: as §5, §6

Micrococcus = test: as above; assay type: cell-based; settings: % bezogen auf den Wirkstoff; am 5. Tag
Procedure: as §5, §6

Pseudomonas = test: as above; assay type: cell-based; settings: % bezogen auf den Wirkstoff; am 5. Tag
Procedure: as §5, §6

Cladosporium resinae [8] = test: Mycelial growth inhibition on agar (contact activity); assay type: cell-based; settings: Tabelle 12
[9] = test system: gewöhnlichen Mehlkäfern und Schwarmspinnerraupen; test: Antifeedant activity; assay type: in vivo; settings: Vergleichsmuster Brestan
From the text: Die Prüfung der antiphydanten Aktivität wurde an gewöhnlichen Mehlkäfern und Schwarmspinnerraupen durchgeführt.

Acremonium cowum [10] = test: Mycelial growth inhibition on agar (contact activity); assay type: cell-based; settings: Tabelle 12
Acremonium charticola [11] = test: as above; assay type: cell-based; settings: Tabelle 12
[12] = test system: Cladosporium cladosporioides; test: as above; assay type: cell-based; settings: Tabelle 12
[13] = Präparatkonzentration 0,0015 %, Würzeagar
[14] = Präparatkonzentration 0,003 %, Würzeagar
[15] = Präparatkonzentration 0,006 %, Würzeagar
[16] = Präparatkonzentration 0,012 %, Würzeagar
[17] = Konzentration des Praparats 0,1 %, Tabelle 12
[18] = Konzentration des Praparats 0,2 %, Tabelle 12
[19] = Konzentration des Praparats 0,4 %, Tabelle 12
[20] = Konzentration des Praparats 0,05 %, Tabelle 12
[21] = Konzentration des Praparats 0,8 %, Tabelle 12
[22] = Konzentration des Praparats 0,1 %
[23] = Konzentration des Praparats 0,2 %
[24] = Konzentration des Praparats 0,4 %
[25] = Konzentration des Praparats 0,05 %
[26] = Konzentration des Praparats 0,8 %

## C=COCCNC(=S)S [Natrium-N-(vinyloxyäthyl)dithiocarbamat]
Penicillium charlesii; [13]
  Myzelhemmung in %: 25%
Penicillium charlesii; [14]
  Myzelhemmung in %: 40%
Penicillium charlesii; [15]
  Myzelhemmung in %: 90%
Penicillium charlesii; [16]
  Myzelhemmung in %: 100%
Acremonium cowum [1]; Präparatkonzentration 0,0015 %
  Myzelhemmung in %: 100%
Acremonium cowum [1]; Präparatkonzentration 0,003 %
  Myzelhemmung in %: 100%
Acremonium cowum [1]; Präparatkonzentration 0,006 %
  Myzelhemmung in %: 100%
Acremonium cowum [1]; Präparatkonzentration 0,012 %
  Myzelhemmung in %: 100%
Cladosporium resinae [2]; Präparatkonzentration 0,0015 %
  Myzelhemmung in %: 90%
Cladosporium resinae [2]; Präparatkonzentration 0,003 %
  Myzelhemmung in %: 100%
Cladosporium resinae [2]; Präparatkonzentration 0,006 %
  Myzelhemmung in %: 100%
Cladosporium resinae [2]; Präparatkonzentration 0,012 %
  Myzelhemmung in %: 100%
Walrotiela subiculesa; [13]
  Myzelhemmung in %: 100%
Walrotiela subiculesa; [14]
  Myzelhemmung in %: 100%
Walrotiela subiculesa; [15]
  Myzelhemmung in %: 100%
Walrotiela subiculesa; [16]
  Myzelhemmung in %: 100%
Penicillium chrysogenum; [13]
  Myzelhemmung in %: 5%
Penicillium chrysogenum; [14]
  Myzelhemmung in %: 20%
Penicillium chrysogenum; [15]
  Myzelhemmung in %: 80%
Penicillium chrysogenum; [16]
  Myzelhemmung in %: 100%
Acremonium charticola [3]; Präparatkonzentration 0,0015 %
  Myzelhemmung in %: 100%
Acremonium charticola [3]; Präparatkonzentration 0,003 %
  Myzelhemmung in %: 100%
Acremonium charticola [3]; Präparatkonzentration 0,006 %
  Myzelhemmung in %: 100%
Acremonium charticola [3]; Präparatkonzentration 0,012 %
  Myzelhemmung in %: 100%
Geotrichum candidum Link; [13]
  Myzelhemmung in %: 5%
Geotrichum candidum Link; [14]
  Myzelhemmung in %: 40%
Geotrichum candidum Link; [15]
  Myzelhemmung in %: 75%
Geotrichum candidum Link; [16]
  Myzelhemmung in %: 100%
Oidium Sp.; Präparatkonzentration 0,0015 %
  Myzelhemmung in %: 60%
Oidium Sp.; Präparatkonzentration 0,003 %
  Myzelhemmung in %: 100%
Oidium Sp.; Präparatkonzentration 0,006 %
  Myzelhemmung in %: 100%
Oidium Sp.; Präparatkonzentration 0,012 %
  Myzelhemmung in %: 100%
[4]; Präparatkonzentration 0,0015 %
  Myzelhemmung in %: 100%
[4]; Präparatkonzentration 0,003 %
  Myzelhemmung in %: 100%
[4]; Präparatkonzentration 0,006 %
  Myzelhemmung in %: 100%
[4]; Präparatkonzentration 0,012 %
  Myzelhemmung in %: 100%
[5]
  Löslichkeit in Wasser: gut
Fusarium sambucinum
  unterdrückt das Wachstum des Myzeliums der Pilze: 100%
Fusarium moniliforme
  unterdrückt das Wachstum des Myzeliums der Pilze: 100%
Aspergillus niger
  unterdrückt das Wachstum des Myzeliums der Pilze: 100%
Xantomonas malvacearum
  unterdrückt das Wachstum von Bakterien: 33%
[6]; mouse, in vivo, ip, read-out: LD50
  LD50: 260 mg/kg
Sphaeropsis malorum
  unterdrückt das Wachstum des Myzeliums der Pilze: 100%
Psoroptes cuniculi; 24-stündiger Kontakt mit dem Wirkstoff
  LK-50 %: 0,0022%
Psoroptes cuniculi; Konzentration 0,0039 %
  Vernichtung von 100 % der Milben nach Stunden: 48 Stunden
Psoroptes cuniculi; Konzentration 0,0078 %
  Vernichtung von 100 % der Milben nach Stunden: 24 Stunden
Psoroptes cuniculi; Konzentration 0,0625 bis 0,125 %
  Vernichtung von 100 % der Milben nach Stunden: 6 Stunden
Psoroptes cuniculi; Konzentration 0,125 bis 0,5 %
  Vernichtung von 100 % der Milben nach Stunden: 4 Stunden
Psoroptes cuniculi; gegenüber Chlorophos
  selektive Toxizität gegen Räudemilben, dem Chlorophos überlegen: ~400 mal
[7]
  Lagerbeständigkeit: lagerbeständig
Rhizoctonia solani
  unterdrückt das Wachstum des Myzeliums der Pilze: 100%

## Kupfer-N-(vinyloxyäthyl)dithiocarbamat
Penicillium charlesii; [17]
  Myzelhemmung in %: 26%
Penicillium charlesii; [18]
  Myzelhemmung in %: 37%
Penicillium charlesii; [19]
  Myzelhemmung in %: 92%
Penicillium charlesii; [20]
  Myzelhemmung in %: 24%
Penicillium charlesii; [21]
  Myzelhemmung in %: 100%
Walrotiela subiculesa; [17]
  Myzelhemmung in %: 50%
Walrotiela subiculesa; [18]
  Myzelhemmung in %: 45%
Walrotiela subiculesa; [19]
  Myzelhemmung in %: 100%
Walrotiela subiculesa; [20]
  Myzelhemmung in %: 0%
Walrotiela subiculesa; [21]
  Myzelhemmung in %: 100%
Penicillium chrysogenum; [17]
  Myzelhemmung in %: 4%
Penicillium chrysogenum; [18]
  Myzelhemmung in %: 40%
Penicillium chrysogenum; [19]
  Myzelhemmung in %: 85%
Penicillium chrysogenum; [20]
  Myzelhemmung in %: 4%
Penicillium chrysogenum; [21]
  Myzelhemmung in %: 100%
Geotrichum candidum Link; [17]
  Myzelhemmung in %: 100%
Geotrichum candidum Link; [18]
  Myzelhemmung in %: 100%
Geotrichum candidum Link; [19]
  Myzelhemmung in %: 100%
Geotrichum candidum Link; [20]
  Myzelhemmung in %: 30%
Geotrichum candidum Link; [21]
  Myzelhemmung in %: 100%
[5]
  Löslichkeit in Wasser: unlöslich
[6]
  LD50: 267 mg/kg
Escherichia
  Konzentrationen, welche das Bakterienwachstum völlig (100 %) hemmen: 0,25%
Bacillus
  Konzentrationen, welche das Bakterienwachstum völlig (100 %) hemmen: 0,25%
Xantomonas
  Konzentrationen, welche das Bakterienwachstum völlig (100 %) hemmen: 0,25%
Micrococcus
  Konzentrationen, welche das Bakterienwachstum völlig (100 %) hemmen: 0,25%
Pseudomonas
  Konzentrationen, welche das Bakterienwachstum völlig (100 %) hemmen: 0,25%
[7]
  Lagerbeständigkeit: lagerbeständig
Cladosporium resinae [8]; [22]
  Myzelhemmung in %: 43%
Cladosporium resinae [8]; [23]
  Myzelhemmung in %: 75%
Cladosporium resinae [8]; [24]
  Myzelhemmung in %: 100%
Cladosporium resinae [8]; [25]
  Myzelhemmung in %: 34%
Cladosporium resinae [8]; [26]
  Myzelhemmung in %: 100%
[9]
  antiphydante Aktivität: auf gleicher Höhe mit Brestan
Acremonium cowum [10]; [22]
  Myzelhemmung in %: 100%
Acremonium cowum [10]; [23]
  Myzelhemmung in %: 100%
Acremonium cowum [10]; [24]
  Myzelhemmung in %: 100%
Acremonium cowum [10]; [25]
  Myzelhemmung in %: 50%
Acremonium cowum [10]; [26]
  Myzelhemmung in %: 100%
Acremonium charticola [11]; [22]
  Myzelhemmung in %: 50%
Acremonium charticola [11]; [23]
  Myzelhemmung in %: 100%
Acremonium charticola [11]; [24]
  Myzelhemmung in %: 100%
Acremonium charticola [11]; [25]
  Myzelhemmung in %: 43%
Acremonium charticola [11]; [26]
  Myzelhemmung in %: 100%
[12]; [22]
  Myzelhemmung in %: 100%
[12]; [23]
  Myzelhemmung in %: 100%
[12]; [24]
  Myzelhemmung in %: 100%
[12]; [25]
  Myzelhemmung in %: 45%
[12]; [26]
  Myzelhemmung in %: 100%
